# Values of other authors in article PMC3057427 (ACS combinatorial science, 2011).
row,Compound,efficacy in anti-Parkinsonian animal models
1,O=C(Nc1cc(Cl)cc(Cl)c1)[C@H]1CCCC[C@H]1C(=O)O [Compound 2],display efficacy
2,COc1cc(NC(=O)c2ccccn2)ccc1Cl [Compound 6],display efficacy
